The source of these data is ChEMBL document CHEMBL4689842, “EUbOPEN Chemogenomics Library wave 1” (2021).

The subject of this data set is Fibroblast. Description: Incucyte cell viability with human fibroblast. Note: filed as whole numbers so only -1 and 0 and 1 occur. The format is toxicity, cell-based. The following applies: 10 µM, compound concentration 10 uM.
[1] abbreviates: 0 h, replicate number 1, timepoint 0 hours.
The mark [2] stands for this setting: 6 h, replicate number 2, timepoint 6 hours.
Where [3] appears, read: 12 h, replicate number 1, timepoint 12 hours.
Setting [4] is: 12 h, replicate number 2, timepoint 12 hours.
[5] abbreviates: 18 h, replicate number 1, timepoint 18 hours.
Where [6] appears, read: 24 h, replicate number 1, timepoint 24 hours.
The mark [7] stands for this setting: 6 h, replicate number 1, timepoint 6 hours.
[8] abbreviates: 0 h, replicate number 2, timepoint 0 hours.
Setting [9] is: 18 h, replicate number 2, timepoint 18 hours.
Setting [10] is: 24 h, replicate number 2, timepoint 24 hours.

With `Cc1csc2c(N[C@@H](C)CN3CCN(S(=O)(=O)c4ccc(Cl)c(Cl)c4)CC3)ncnc12`, the “Growth Rate” value under setting [1] worked out at 0; the “Growth Rate” value under setting [2] is on record as 0; the “Growth Rate” value under setting [3] is given as 1; the “Growth Rate” value under setting [4] is reported as 0; the “Growth Rate” value under setting [5] turned out to be 0; the “Growth Rate” value under setting [6] was determined as 0.

In the case of `COc1cc(-n2cnc3cc(-c4ccc(Cl)cc4)sc3c2=O)ccc1OCCN1CCCC1`, the “Growth Rate” value by setting is: under setting [7], 0; under setting [3], 0; under setting [5], 0; under setting [6], 0.

Take `NC(=O)Nc1cc(-c2cccc(F)c2)sc1C(=O)N[C@H]1CCCNC1` [AZD-7762]: the “Growth Rate” value was found to be 0 under setting [8]; 1 under setting [7]; 0 under setting [3]; 0 under setting [5]; 1 under setting [9]; 0 under setting [6].

As to `O=C(NCCCC1CCCCC1)c1ccc(CNC(=O)c2cnn(-c3ccccc3)c2C(F)(F)F)cc1` [SR-321], the “Growth Rate” value under setting [1] came out at 1; the “Growth Rate” value under setting [7] is listed as 1; the “Growth Rate” value under setting [2] is reported as 0; the “Growth Rate” value under setting [3] was determined as 1; the “Growth Rate” value under setting [4] is listed as 0; the “Growth Rate” value under setting [5] is recorded as 1. Under setting [6], the “Growth Rate” value was determined as 1.

For `CN(C)C(=O)N[C@H]1CC[C@H](CCN2CCN(c3cccc(Cl)c3Cl)CC2)CC1.Cl` [CARIPRAZINE HYDROCHLORIDE], the “Growth Rate” value reads like this: under setting [1], 0; under setting [7], 0; under setting [3], 0; under setting [5], 1; under setting [9], 0; under setting [6], 1. Besides, under setting [10], the “Growth Rate” value worked out at 0.

Regarding `CN(C)c1ncnc(-c2ccc3nc(Nc4cc(CN5CCN(C(=O)CC(F)(F)F)CC5)ccn4)[nH]c3c2)c1Cl` [BAY-440], the “Growth Rate” value is listed as 0 under setting [1]; 1 under setting [7]; 1 under setting [3]; 1 under setting [5]; 0 under setting [9]; 1 under setting [6]. The “Growth Rate” value under setting [10] is 0.

Turning to `OC1(c2ccc(Cl)cc2)CCN(Cc2c[nH]c3ccccc23)CC1`, the “Growth Rate” value was determined as 0 under setting [1]; 0 under setting [7]; 0 under setting [3]; 0 under setting [5]; 0 under setting [6].

In the case of `C[C@@H](NCCCc1cccc(C(F)(F)F)c1)c1cccc2ccccc12.Cl` [CINACALCET HYDROCHLORIDE], the “Growth Rate” value came to 1 under setting [1]; 0 under setting [7]; 0 under setting [3]; 0 under setting [5]; 0 under setting [6].

On to `CCN(CC)CCCCNc1ncc2cc(-c3cc(OC)cc(OC)c3)c(NC(=O)NC(C)(C)C)nc2n1` [PD-173074], for which the “Growth Rate” value under setting [1] came to 1; the “Growth Rate” value under setting [8] worked out at 0; the “Growth Rate” value under setting [7] is reported as 1; the “Growth Rate” value under setting [3] was found to be 0; the “Growth Rate” value under setting [5] is 0; the “Growth Rate” value under setting [6] stood at 0.

`C=CC(=O)Nc1ccc2ncnc(Nc3ccc(OCc4cccc(F)c4)c(Cl)c3)c2c1.Cc1ccc(S(=O)(=O)O)cc1`: the “Growth Rate” value under setting [1] was 0; the “Growth Rate” value under setting [7] is reported as 0; the “Growth Rate” value under setting [3] came out at 0; the “Growth Rate” value under setting [5] was 0; the “Growth Rate” value under setting [6] is 0.

Regarding `Nc1c(C(=O)NCc2ccc(C(=O)NCCCC3CCCCC3)cc2)cnn1-c1ccccc1` [SR-318], the “Growth Rate” value under setting [1] turned out to be 0; the “Growth Rate” value under setting [8] amounted to 1; the “Growth Rate” value under setting [7] is recorded as 1; the “Growth Rate” value under setting [2] turned out to be 0; the “Growth Rate” value under setting [3] is 1; the “Growth Rate” value under setting [4] worked out at 0. For the same molecule, the “Growth Rate” value under setting [5] was found to be 0 and the “Growth Rate” value under setting [6] is recorded as 0.

Consider `C=CC(=O)Nc1cc2c(Nc3ccc(F)c(Cl)c3)ncnc2cc1OCCCN1CCOCC1.Cl.Cl` [CANERTINIB DIHYDROCHLORIDE], for which the “Growth Rate” value is, setting by setting: under setting [1], 1; under setting [7], 0; under setting [3], 0; under setting [5], 0; under setting [6], 0.

For the molecule `CNc1nc(NCc2ccc(NS(C)(=O)=O)cc2Cl)cc(-c2ccccn2)n1`, the “Growth Rate” value runs as follows: under setting [7], 0; under setting [3], 0; under setting [5], 0; under setting [6], 0.

As for `CN1CCN(CCOc2cc(OC3CCOCC3)c3c(Nc4c(Cl)ccc5c4OCO5)ncnc3c2)CC1` [SARACATINIB], the “Growth Rate” value worked out at 0 under setting [1], 1 under setting [5] and 1 under setting [6].

Take `CC(C)(O)CNc1ncc(-c2ccnc(Nc3ccnc(Cl)c3)n2)c(CC2CC2)n1`: the “Growth Rate” value runs as follows: under setting [8], 1; under setting [7], 0; under setting [2], 1; under setting [3], 0; under setting [5], 0; under setting [6], 0.

On to `CN(C)CC#Cc1ccc(OCCCc2sc(N3CCc4cccc(C(=O)Nc5nc6ccccc6s5)c4C3)nc2C(=O)O)c(F)c1` [A-1155463], for which the “Growth Rate” value reads like this: under setting [1], 0; under setting [7], 0; under setting [3], 0; under setting [5], 0; under setting [6], 0.

In the case of `COc1ncc(-c2ccc3nccc(-c4ccnnc4)c3c2)cc1NS(=O)(=O)c1ccc(F)cc1F` [OMIPALISIB], the “Growth Rate” value under setting [8] was 0; the “Growth Rate” value under setting [7] came out at 0; the “Growth Rate” value under setting [3] is on record as 0; the “Growth Rate” value under setting [5] stood at 0; the “Growth Rate” value under setting [6] was found to be 0.

With `C[C@@]1(C(=O)Nc2ccc(F)nc2)CCCN1c1nc(Nc2cc(C3CC3)n[nH]2)c2cccn2n1` [BMS-754807], the “Growth Rate” value under setting [7] was 0, the “Growth Rate” value under setting [3] was 0, the “Growth Rate” value under setting [5] is listed as 0 and the “Growth Rate” value under setting [6] is on record as 0.

As for `O=C(NCCN1CCOCC1)c1ccc2c(c1)C(=O)c1ccc(Nc3ccc(F)c(NC(=O)c4ccccc4)c3)cc1CC2` [FS-694], the “Growth Rate” value runs as follows: under setting [1], 0; under setting [7], 1; under setting [3], 0; under setting [5], 0; under setting [6], 0.

As for `CN1CCC[C@@H]1CCO[C@](C)(c1ccccc1)c1ccc(Cl)cc1.O=C(O)/C=C/C(=O)O` [CLEMASTINE FUMARATE], the “Growth Rate” value runs as follows: under setting [1], 0; under setting [7], 1; under setting [2], 0; under setting [3], 0; under setting [5], 0; under setting [6], 0.
